Laboratory results from US20140323500A1, “NADPH OXIDASE 4 INHIBITORS AND USE THEREOF” (GENKYOTEX SA, priority 2011, published 2014).

System: female mice subjected to ovariectomy
Test: Ovariectomy-induced osteoporosis (bone loss) in mice
Assay type: in vivo
Procedure: BMD of the left femur was measured by peripheral quantitative computed tomography (QCT) using an XCT Research QCT machine (Stratec Medizintechnik, Pforzheim, Germany). One slice (0.2 mm thick) in the mid-diaphysis of the femur and 3 slices in the distal femoral metaphysis located 1.5, 2, and 2.5 mm proximal to the articular surface of the knee joint were measured. BMD values of the distal femoral metaphysic were calculated as the mean of 3 slices. A voxel size of 0.070 mm and a threshold of 710 mg/cm^3 were used for calculation of BMD as described in Hofbauer et al., 2009, Arthritis Rheum., 60(5):1427-1437.
The control group received daily gavages by the solvent.
To study the latter effect, female mice were subjected to ovariectomy to induce osteoporosis and the effect of pharmacological inhibition of Nox4 with a Nox4 inhibitor as well as acute genetic knockout of the protein was studied. For this, mice were subjected to ovariectomy 8 weeks after birth and treatment at 60 mg/kg with a Nox4 inhibitor of the invention was started 2 days after the operation and continued throughout the study (6 weeks).
3, Hamburg was used which completely blocks osteoclast activity. […] For this, bones were scanned with a skyscan 1176 and bone density was analysed with the integrated software using two phantoms with 0.25 g/cm^3 and 0.75 g/cm^3 as reference. A 2 mm portion of the femur from the tibia plateau was analysed for total and trabecular bone density by the software provided by the manufacturer of the machine. […] For this method, the femurs were loaded to failure by 3-point bending tests using a Zwick Z020/TN2A materials testing machine (Zwick, Ulm, Germany) with a 1 kN force detector, and a force resolution of 0.01N. The distance between the lower supports for the bending tests was 5 mm. Crosshead speed during testing was 0.2 mm/minute for all measurements. From the force-displacement data, ultimate force (Fmax; in N) was calculated.

With `COc1ccc(-c2c3c(=O)n(-c4ccccc4OC)[nH]c3cc(=O)n2Cc2cccnc2)c(F)c1` [Compound (1), 4-(2-fluoro-4-methoxyphenyl)-2-(2-methoxyphenyl)-5-(pyridin-3-ylmethyl)-1H-pyrazolo[4,3-c]pyridine-3,6(2H,5H)-dione] the “absolute bone density (total)” value (distal femur 6 weeks after ovariectomy, compound 1 at 20 and 60 mg/kg, pamidronat 10 mg/kg once a week, microCT, FIG. 6A) was “increased absolute bone density”, the “absolute trabecular bone density” value (distal femur 6 weeks after ovariectomy, compound 1 at 20 and 60 mg/kg, pamidronat 10 mg/kg once a week, microCT, FIG. 6B) was “increased” and the “relative inhibition of ovarectomy-induced total bone loss” value (distal femur 6 weeks after ovariectomy, compound 1 at 20 and 60 mg/kg, pamidronat 10 mg/kg once a week, microCT, FIG. 6C) was roughly 50%. For the same molecule, the “relative inhibition of trabecular bone loss” value (distal femur 6 weeks after ovariectomy, compound 1 at 20 and 60 mg/kg, pamidronat 10 mg/kg once a week, microCT, FIG. 6D) was “approximately 60%” and the “bone breaking strength (3-point breaking test)” value (highest concentration (of 20 and 60 mg/kg), femur, 6 weeks after ovariectomy, FIG. 6E) was “significant increase in bone breaking strength”.
